Laboratory results from patent US20090076098A1, “METHODS, KITS, AND COMPOUNDS FOR DETERMINING RESPONSIVENESS TO TREATMENT OF A PATHOLOGICAL DISORDER BY EPOTHILONES” (priority 2007, published 2009).
Where “and” joins values, the source holds several entries; their conditions need not be identical. Identical values can stand only once.

How the values were obtained:
[1] = tested on: non small cell lung cancer (NSCLC) xenograft models; type: in vivo; conditions: for percentage of tumors with a T/C ratio<20%: share of models; for percentage of responses overall (T/C): share of models responding
Method: FIG. 1: Preclinical lung cancer study design: 22 non small cell lung cancer (NSCLC) xenograft models were derived from patients primary tumors directly after surgery; at low murine passages response to Sagopilone and standard chemotherapy was assessed and samples grouped into responders and non-responders. RNA from untreated control tumors was subjected to Affymetrix gene expression analysis for discrimination of gene expression levels at baseline with tumor response.
Lung cancer xenograft models were established by subcutaneously transplanting fresh tumor material from NSCLC patients into nude mice. Tumor types included pleomorphic carcinoma (7187, 7336), squamous cell carcinoma (7126, 7177, 7298, 7343, 7462, 7433, 7530), dedifferentiated carcinoma (7668), adenocarcinoma (7064, 7198, 7406, 7387, 7466, 7612) and small cell lung cancer ([…]).
Antitumor activity was determined using either the reduction in tumor area in treated versus control mice (T/C ratio), or the mean change in absolute tumor volume compared with volume at baseline (day of first treatment).
1° lung cancer biopsies obtained from patients with established cancer were transplanted into nude mice. Tumor growth curves for the treatment with Etoposide, Carboplatin, Gemcitabine, Taxol, Navelbine, Cetuximab, Erlotinib und Sagopilone were generated. Mutation status of p53 was analyzed in the models according to methods known in the art. Fourteen Sagopilone responders and eight Sagopilone non-responders were characterized in long-term experiments. A PBS control group was treated with PBS or Sagopilone for 24 hrs before sacrifice. RNA for Sagopilone responder and non-responder models were isolated according to methods known in the art and were hybridized onto arrays according to the manufacturer's instructions.

A549 NSCLC cells = test: A549 NSCLC xenograft in nude mice: Sagopilone combined with acetazolamide; type: in vivo; conditions: acetazolamide 40 mg/day p.o. with Sagopilone 6 or 8 mg/kg, FIG. 11
Method: FIG. 11: A549 NSCLC cells were xenotransplanted into nude mice. Mice were treated starting on day 7 after tumor transplantation as indicated: Sagopilone 6 mg/kg or 8 mg/kg were given on days 17, 32 and 45 after transplantation as indicated by arrows, acetazolamide 40 mg/day p.o. was given either daily or twice a day for five days starting on the day of Sagopilone administration (2 h before and 2 h after application of Sagopilone).

[2] = 22 NSCLC xenograft models, FIG. 4, count

C=CC[C@H]1C(=O)C(C)(C)[C@@H](O)CC(=O)O[C@H](c2ccc3sc(C)nc3c2)C[C@@H]2O[C@]2(C)CCC[C@H](C)[C@@H]1O [Sagopilone, (1S,3S,7S,10R,11S,12S,16R)-7,11-Dihydroxy-10-allyl-8,8,12,16-tetramethyl-3-(2-methyl-benzothiazol-5-yl)-4,17-dioxa-bicyclo[14.1.0]heptadecane-5,9-dione]
samples with stable disease [1, 2]: three
samples with tumor regression [1, 2]: Eleven
models being non-responders (tumor progression), clinical criteria ([1]; 22 NSCLC xenograft models, count of models): eight
models showing response / tumor growth inhibition by T/C value ([1]; 22 lung cancer xenografts, tumor volume treated vs control, count of models): 22 and 22 of 22
number of NSCLC with a T/C ratio<20% ([1]; lung cancer xenografts, count of models): 12
percentage of tumors with a T/C ratio<20% ([1]; lung cancer xenografts): 76.5%
response of xenograft model Lu7198 ([1]; model Lu7198, FIG. 3B): tumor progression
response of xenograft model Lu7298 ([1]; model Lu7298, FIG. 3A): tumor shrinkage
activity and tolerability compared with commonly used cytotoxic agents in NSCLC ([1]; vs carboplatin, paclitaxel, gemcitabine, etoposide, vinorelbine, in words): superior activity and tolerability

Nc1ccn([C@@H]2O[C@H](CO)[C@@H](O)C2(F)F)c(=O)n1 [gemcitabine]
response (percentage of models), criteria not given ([1]; lung cancer xenografts, b271, FIGS. 2a and 2b): 61.5%
percentage of tumors with a T/C ratio<20% ([1]; lung cancer xenografts): 47.0%
percentage of responses overall (T/C) ([1]; lung cancer xenografts): 80.0%
models in which at least 2 animals per group (n=6) could not be evaluated due to toxicity ([1]; mouse, in vivo): seven
toxicity in xenograft-bearing mice ([1]; mouse, in vivo): marked toxicity
models in which toxicity prevented evaluation of any mice ([1]; nude, mouse, in vivo): 2

CC(=O)O[C@H]1C(=O)[C@@]2(C)[C@H]([C@H](OC(=O)c3ccccc3)[C@]3(O)C[C@H](OC(=O)[C@H](O)[C@@H](NC(=O)c4ccccc4)c4ccccc4)C(C)=C1C3(C)C)[C@]1(OC(C)=O)CO[C@@H]1C[C@@H]2O [Paclitaxel]
percentage of tumors with a T/C ratio<20% ([1]; lung cancer xenografts): 56.2%
percentage of responses overall (T/C) ([1]; lung cancer xenografts): 81.2%

N.N.O=C([O-])C1(C(=O)[O-])CCC1.[Pt+2] [carboplatin]
percentage of tumors with a T/C ratio<20% ([1]; lung cancer xenografts): 25.0%
percentage of responses overall (T/C) ([1]; lung cancer xenografts): 68.8%

CC(=O)Nc1nnc(S(N)(=O)=O)s1 [acetazolamide]
effect of combination with an epothilone on tumor response (A549 NSCLC cells): sensitization
